{
  "source": "ChEMBL document CHEMBL1667829",
  "about": "“Analysis of β-amino alcohols as inhibitors of the potential anti-tubercular target N-acetyltransferase” (Bioorg Med Chem Lett, 2011)",
  "key": {"[1]": {"test_system": "Mycobacterium marinum", "experiment": "Inhibition of Mycobacterium marinum NAT using isoniazed substrate at 30 uM by acetyl-coA hydrolysis assay"}, "[2]": {"target": "T1, Arylamine N-acetyltransferase (Mycolicibacterium smegmatis, UniProt O86309)", "T1 sequence (O86309 whole entry)": "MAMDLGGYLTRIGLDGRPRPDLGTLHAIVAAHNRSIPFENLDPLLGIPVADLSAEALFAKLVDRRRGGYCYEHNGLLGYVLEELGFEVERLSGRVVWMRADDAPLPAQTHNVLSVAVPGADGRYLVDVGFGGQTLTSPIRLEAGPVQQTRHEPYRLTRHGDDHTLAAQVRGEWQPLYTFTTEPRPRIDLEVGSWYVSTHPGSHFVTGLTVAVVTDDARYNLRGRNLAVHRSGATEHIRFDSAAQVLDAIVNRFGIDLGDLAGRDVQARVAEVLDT", "experiment": "Inhibition of Mycobacterium smegmatis NAT using 5-aminosalicylate substrate by acetyl-coA hydrolysis assay"}, "[3]": {"target": "T1, Arylamine N-acetyltransferase", "experiment": "Inhibition of Mycobacterium smegmatis NAT using isoniazed substrate by acetyl-coA hydrolysis assay"}, "[4]": {"test_system": "Mycobacterium marinum", "experiment": "Antimicrobial activity against Mycobacterium marinum at 100 ug/ml", "format": "functional, organism-based"}, "[5]": {"target": "T2, Arylamine N-acetyltransferase (Pseudomonas aeruginosa (strain ATCC 15692 / PAO1 / 1C / PRS 101 / LMG12228), UniProt Q9HUY3)", "T2 sequence (Q9HUY3 whole entry)": "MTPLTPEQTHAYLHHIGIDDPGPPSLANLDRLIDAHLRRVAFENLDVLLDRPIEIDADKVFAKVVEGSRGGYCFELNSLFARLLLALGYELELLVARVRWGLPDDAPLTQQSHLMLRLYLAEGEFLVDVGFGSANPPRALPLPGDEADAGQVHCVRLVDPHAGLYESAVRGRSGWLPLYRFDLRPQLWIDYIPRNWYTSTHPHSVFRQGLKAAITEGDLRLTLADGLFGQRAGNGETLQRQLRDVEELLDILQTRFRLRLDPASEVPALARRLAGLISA", "experiment": "Inhibition of Pseudomonas aeruginosa NAT using 5-aminosalicylate substrate by acetyl-coA hydrolysis assay"}, "[6]": {"experiment": "Inhibition of Mycobacterium marinum NAT using 5-aminosalicylate substrate by acetyl-coA hydrolysis assay"}, "[7]": {"target": "T2, Arylamine N-acetyltransferase", "experiment": "Inhibition of Pseudomonas aeruginosa NAT using isoniazed substrate by acetyl-coA hydrolysis assay"}, "[8]": {"experiment": "Inhibition of Mycobacterium marinum NAT using isoniazed substrate by acetyl-coA hydrolysis assay"}, "[9]": {"test_system": "Mycobacterium marinum", "experiment": "Antimicrobial activity against Mycobacterium marinum at 80 ug/ml", "format": "functional, organism-based"}, "[10]": {"experiment": "Inhibition of Mycobacterium marinum NAT using hydralazine substrate by acetyl-coA hydrolysis assay"}, "[11]": {"test_system": "Mycobacterium tuberculosis", "experiment": "Antimicrobial activity against Mycobacterium tuberculosis at 50 ug/ml relative to control", "format": "functional"}},
  "note": "Active and inactive are the calls of the source. The rule behind the calls is not given here.",
  "data": [
    {"smiles": "Cc1ccccc1OCC(O)CN1C(=O)NC(C)(C)C1=O", "note": "(configuration not stated)", "values": [
      {"measurement": "inhibition", "setting": "[1]", "value": 0.5, "unit": "%"}
    ]},
    {"smiles": "CC1(C)NC(=O)N(CC(O)COc2ccccc2F)C1=O", "note": "(configuration not stated)", "values": [
      {"measurement": "inhibition", "setting": "[1]", "value": 0, "unit": "%"}
    ]},
    {"smiles": "CC1(C)NC(=O)N(CC(O)COc2ccc(C3CCCC3)cc2)C1=O", "note": "(configuration not stated)", "values": [
      {"measurement": "IC50", "setting": "[2]", "value": "> 50", "unit": "µM"},
      {"measurement": "inhibition", "setting": "[1]", "value": 0, "unit": "%"},
      {"measurement": "IC50", "setting": "[3]", "value": "> 50", "unit": "µM"},
      {"measurement": "Activity", "setting": "[4]", "value": "inactive"},
      {"measurement": "IC50", "setting": "[5]", "value": "> 50", "unit": "µM"},
      {"measurement": "IC50", "setting": "[6]", "value": "> 50", "unit": "µM"},
      {"measurement": "IC50", "setting": "[7]", "value": "> 50", "unit": "µM"},
      {"measurement": "IC50", "setting": "[8]", "value": "> 50", "unit": "µM"},
      {"measurement": "Activity", "setting": "[9]", "value": "inactive"}
    ]},
    {"smiles": "CC1(C)NC(=O)N(CC(O)COc2ccccc2-c2ccccc2)C1=O", "note": "(configuration not stated)", "values": [
      {"measurement": "inhibition", "setting": "[1]", "value": 24, "unit": "%"}
    ]},
    {"smiles": "CC1(C)NC(=O)N(CC(O)COc2ccccc2C2CCCC2)C1=O", "note": "(configuration not stated)", "values": [
      {"measurement": "IC50", "setting": "[2]", "value": 17.7, "unit": "µM"},
      {"measurement": "inhibition", "setting": "[1]", "value": 58, "unit": "%"},
      {"measurement": "IC50", "setting": "[3]", "value": 9.4, "unit": "µM"},
      {"measurement": "IC50", "setting": "[10]", "value": 1.5, "unit": "µM"},
      {"measurement": "IC50", "setting": "[5]", "value": 16.2, "unit": "µM"},
      {"measurement": "IC50", "setting": "[6]", "value": 33.1, "unit": "µM"},
      {"measurement": "IC50", "setting": "[7]", "value": 37, "unit": "µM"},
      {"measurement": "inhibition at 50 µg/mL", "setting": "[11]", "value": 20, "unit": "%"}
    ]},
    {"smiles": "CC1(C)NC(=O)N(CC(O)COc2ccccc2-c2cccc3ccccc23)C1=O", "note": "(configuration not stated)", "values": [
      {"measurement": "inhibition", "setting": "[1]", "value": 28, "unit": "%"}
    ]},
    {"smiles": "CC1(C)NC(=O)N(CC(O)COc2ccccc2[N+](=O)[O-])C1=O", "note": "(configuration not stated)", "values": [
      {"measurement": "inhibition", "setting": "[1]", "value": 4, "unit": "%"}
    ]},
    {"smiles": "O=C1CNC(=O)N1CC(O)COc1ccccc1", "note": "(configuration not stated)", "values": [
      {"measurement": "inhibition", "setting": "[1]", "value": 0, "unit": "%"}
    ]},
    {"smiles": "O=C1NC(c2ccccc2)C(=O)N1CC(O)COc1ccccc1", "note": "(configuration not stated)", "values": [
      {"measurement": "inhibition", "setting": "[1]", "value": 0, "unit": "%"}
    ]},
    {"smiles": "CC1(C)NC(=O)N(CC(O)COc2ccccc2Br)C1=O", "note": "(configuration not stated)", "values": [
      {"measurement": "inhibition", "setting": "[1]", "value": 24, "unit": "%"}
    ]},
    {"smiles": "CC1(C)NC(=O)N(CC(O)COc2cccc(-c3ccccc3)c2)C1=O", "note": "(configuration not stated)", "values": [
      {"measurement": "inhibition", "setting": "[1]", "value": 6, "unit": "%"}
    ]},
    {"smiles": "CC1(C)NC(=O)N(CC(O)COc2ccc(-c3ccccc3)cc2)C1=O", "note": "(configuration not stated)", "values": [
      {"measurement": "inhibition", "setting": "[1]", "value": 8, "unit": "%"}
    ]}
  ]
}
